Data as given in patent US11517572B2, “Killing senescent cells and treating senescence-associated conditions using a SRC inhibitor and a flavonoid” (Mayo Foundation for Medical Education and Research, priority 2014, dated 2022).
Blank lines part the entries; values can stand above or below the compound they belong to.

Legend:
[1] = tested on: HUVEC cells; experiment: Viability (ATPLITE) of senescent and proliferating HUVEC endothelial cells; type: cell-based, human; conditions: enzastaurin in combination with dasatinib, FIG. 4E, 48 hours
Experimental: Human umbilical endothelial cells (HUVEC) (Lonza Group, Basel, Switzerland) were induced to senescence by exposure to 10 Gy radiation. Twenty days after irradiation, markers of cellular senescence (SA-β Gal) and growth arrest, determined by incorporation of BR dU, were evident. Non-senescent HUVEC cells used as control were plated at low density in culture media so that the cells were proliferating when exposed to the test drug. Senescent HUVEC cells and non-senescent, proliferating HUVEC cells were treated for 48 hours with quercetin, dasatinib, and enzastaurin as follows: (1) quercetin alone at 3.75, 7.5 and 15μ,M; (2) dasatinib alone at 25, 50, 100, and 200 nM; (3) enzastaurin alone at concentrations of 0.25 0.5 1 and 2 μM; (4) dasatinib at 100 nM plus quercetin at 7.5 μM; (5) with dasatinib at 50 nM plus quercetin at 7.5 μM; (6) dasatinib at 100 nM plus enzastaurin at 1.0 μM; (7) dasatinib at 100 nM plus enzastaurin at 0.5 μM; (8) dasatinib at 50 nM plus enzastaurin at 1.0 μM; (9) dasatinib at 50 nM plus enzastaurin at 0.5 μM; (10) quercetin at 15 μM and enzastaurin at 1.0 μM; (11) quercetin at 15 μM and enzastaurin at 1.0 μM; and (12) quercetin at 7.5 μM and enzastaurin at 1.0 μM. The number of viable cells was determined by ATPLITE (Perkin-Elmer, Waltham, Mass.). The data are presented in FIGS. 4A-4F as mean viability (ATP (μM))+SEM of 4.

[2] = tested on: IMR90 cells; experiment: Killing of radiation-induced senescent vs proliferating IMR90 fibroblasts; type: cell-based, human; conditions: enzastaurin at 0.25 0.5 and 2 μM
Excerpt: Senescence of human primary lung fibroblasts (IMR90) (IMR-90 (ATCC® CCL-186TH, Mannassas, Va.) was induced by irradiation. IMR90 cells in culture were subjected to 10 Gy radiation (Day-7). Four days after irradiation (Day-3), the culture media was changed. Three days after the media change (Day 0), the cells were exposed to media containing quercetin. Non-irradiated IMR90 cells were included as controls. Non-irradiated and irradiated IMR90 cells were exposed to quercetin at concentrations of 5, 10, 15, and 45 μM. Percent survival was determined four days after exposure to the drugs (Day 4). The number of viable cells was determined by using ATPLITE (Perkin-Elmer, Waltham, Mass.).
In a separate experiment, IMR90 cells were irradiated as described above to induce senescence. Approximately 20 days after irradiation, the senescent cells and proliferating IMR90 cells were exposed to enzastaurin at concentrations of 0.25 0.5 and 2 μM.

[3] = Weight, body composition and food intake monitoring; type: in vivo; conditions: p16-3MR mice, high fat diet
Excerpt: Changes in weight, body composition, and food intake were also monitored.

[4] = Insulin Tolerance Testing (ITT); type: in vivo, mice
Experimental: Insulin sensitivity was also determined (Insulin Tolerance Testing (ITT)).

[5] = tested on: Senescent cells; experiment: SA-β-Gal senescent cells in adipose tissue of high fat fed p16-3MR mice; type: in vivo; conditions: high fat diet four months, 25 mg/kg daily for five consecutive days, p=<0.004
Experimental: Groups of p16-3MR mice (n=6) were fed a high fat diet (60% fat) for four months mice or a regular chow diet. The presence of senescence cells was determined by measuring luminescence (i.e., p16 positive cells). […] Animals were then treated with ganciclovir or vehicle to determine if removal of senescent cells reduced the presence of senescent cells in adipose tissue. Groups of animals were treated with ganciclovir (GCV) or vehicle. Ganciclovir (25 mg/kg) was administered daily for five consecutive days. The presence of senescent cells in perirenal, epididymal, or subcutaneous inguinal adipose tissue was detected by SA-β-Gal staining Data were analyzed by ANOVA.

[6] = Glucose tolerance testing in DIO INK-ATTAC,p16-3MR mice; type: in vivo; conditions: compared to vehicle-treated DIO mice
Experimental: Three-month old INK-ATTAC,p16-3MR mice were fed a high fat diet for 4 months. The animals were then treated with ganciclovir or vehicle. DIO mice were treated with ganciclovir on September 1 (see FIG. 21).

[7] = Glucose tolerance test and hemoglobin A1c in high fat fed p16-3MR mice; type: in vivo; conditions: high fat diet, 3 rounds of 25 mg/kg daily for five days
Experimental: Groups of p16-3MR mice (n=9) were fed a high fat diet for four months mice or a regular chow diet. Animals were then treated with ganciclovir (3 rounds of 25 mg/kg ganciclovir administered daily for five consecutive days) or vehicle. A glucose bolus was given at time zero, and blood glucose was monitored at 20, 30, 60, and 120 minutes after delivering glucose to determine glucose disposal (see FIG. 18A). This was also quantified as “area under the curve” (AUC) (see FIGS. 18B and 18C), with a higher AUC value indicating glucose intolerance.

Structure (SMILES): Cn1cc(C2=C(c3cn(C4CCN(Cc5ccccn5)CC4)c4ccccc34)C(=O)NC2=O)c2ccccc21 [Enzastaurin, 3-(1-Methylindol-3-yl)-4-[1-[1-(pyridin-2-ylmethyl)piperidin-4-yl]indol-3-yl]pyrrole-2,5-dione]
potentiating effect of dasatinib [1]: slight potentiating effect
killing of proliferating IMR90 cells [2]: did not kill the proliferating cells
selective killing of senescent IMR90 cells ([2]; approximately 20 days after 10 Gy irradiation): did not selectively kill the senescent cells

body composition (percent of fat) [3]: did not alter
food intake (grams per week) [3]: did not alter
Structure (SMILES): Nc1nc(O)c2ncn(COC(CO)CO)c2n1 [ganciclovir]
body weight [3]: did not alter
decrease in blood glucose in insulin tolerance testing ([4]; p16-3MR mice fed a high fat diet, 0, 14, 30, 60, and 120 minutes): greater decrease in blood glucose
change in insulin tolerance testing ([4]; wild-type mice): not observed
presence of senescent cells in epididymal fat (SA-β-Gal) [5]: significant reduction
glucose tolerance (areas under the curve in glucose tolerance tests) [6]: sustained and improved glucose tolerance
Hemoglobin A1c [7]: lower
glucose tolerance test AUC ([7]; vs vehicle-treated): significantly lower
